According to US20080200405A1, “Drug Resistance Reversal In Neoplastic Disease” (priority 2007, published 2008):

Key:
[1] = Single-dose 10-minute intravenous infusion toxicokinetics of OT-551; type: in vivo, Sprague-Dawley rats
Procedure: Blood for toxicokinetic evaluations was collected at pre-determined time points during and after the infusion. Plasma samples were analyzed for OT-551 and TP-H using validated LC/MS/MS assays. Descriptive toxicokinetic parameters were determined by standard model independent methods (Gilbaldi and Perrier, 1982) based on the plasma concentration-time data. […] The plasma concentrations were rounded to the nearest tenth of a ng/mL before the calculations. […] Nominal time points were used for all calculations. Since there was no apparent gender difference in the plasma concentrations of OT-551 and TP-H, the data for male and female rats at each sampling time point were pooled.

[2] = test system: Angiogenesis in CAM; assay: Neovascularization on the CAM (Inhibition of Angiogenesis in CAM); type: in vivo, chicken; details: 30 ug
Procedure: In vivo neovascularization was examined by the method previously described by Auerbach et al. (J. Dev. Biol. 41:391-394 (1974)). Ten-day old chicken embryos were purchased from Spafas, Inc. (Preston, Conn.) and were incubated at 37° C. with 55% relative humidity. In the dark, with the aid of a candling lamp, a small hole was punctured in the shell concealing the air sac with a hypodermic needle. A second hole was punctured in the shell on the broadside of the egg directly over an […] portion of the embryonic membrane, as observed during candling. An artificial air sac was created beneath the second hole by applying gentle vacuum to the first hole using a small rubber squeeze bulb. The vacuum caused the chorioallantoic membrane (CAM) to separate from the shell. A window, approximately 1.0 cm^2, was cut in the shell over the dropped CAM with the use of a small crafts grinding wheel (Dremel, Division of Emerson Electric Company Racine, Wis.). The window allowed direct access to the underlying CAM. A pro-angiogenic agent was added to induce new blood vessel branches on the CAM of 10-day old embryos. […] Louis, Mo.) in a solution (95% ethanol and water). The disks were subsequently air dried under sterile conditions. The disks were then suspended in PBS (Phosphate Buffered Saline) and placed on growing CAMs. […] For inducing angiogenesis, sterile filter disks were saturated with bFGF (1 μg/ml) (Life Technologies, Gaithersburg, Md.) or other pro-angiogenesis factors and control disks were saturated with PBS without Calcium and Magnesium. Control disks were saturated with PBS without Calcium and Magnesium. Using sterile forceps one filter/CAM was placed from the window. The window was sealed with Highland brand transparent tape. After 24-48 hr, 10-25 ul of test agent was injected intravenously or added topically into the CAM membrane. Eight-Ten eggs/treatment group were used. CAM tissue directly beneath filter disk was harvested from embryos treated 48 hours prior with compound or control. Tissues were washed three times with PBS. Sections were placed in a 35-mm petri dish (Nalge Nunc, Rochester, N.Y.) and examined under a SV6 stereomicroscope (Karl Zeiss, Thornwood, N.Y.) at 50× magnification. […] Digital images of CAM sections from Petri dish were collected using a 3-CCD color video camera system (Toshiba America, New York, N.Y.). These images were analyzed using Image-Pro Plus software (Media Cybernetics, Silver Spring, Md.). The number of branch points in blood vessels within the circular region superimposed to the area of a filter disk was counted for each section. […] Tissues were washed three times with PBS. Sections were placed in a 35-mm Petri dish (Nalge Nunc; Rochester, N.Y.) and were examined under a SV6 stereomicroscope (Karl Zeiss; Thornwood, N.Y.) at 50× magnification. Digital images of CAM sections adjacent to filters were collected using a 3-CCD color video camera system (Toshiba America; New York, N.Y.) and analyzed with the Image-Pro Plus software (Media Cybernetics; Silver Spring, Md.). The number of vessel branch points contained in a circular region equal to the area of a filter disk was counted for each section. Percent inhibition data are expressed as the quotient of the experimental value minus the negative control value divided by the difference between the positive control value and the negative control value. One image was counted in each CAM preparation, and findings from eight CAM preparations were analyzed for each treatment condition. In addition, each experiment was performed three times. The resulting angiogenesis index is the mean ±SEM (Standard Error of Measurement) of new branch points in each set of treatment. Statistical analysis of blood vessel branching patterns are performed by 1-way analysis of variance (ANOVA) comparing experimental with corresponding control groups.

[3] = In vitro stability of OT-551 in rat plasma; type: in vitro ADME
Procedure: (§1) The active metabolite of OT-551 (Cyclopropanecarboxylic acid 1-hydroxy-2,2,6,6-tetramethyl-piperidin-4-yl ester) is TP-H. The objective of this analysis was to determine the in vitro half-life of OT-551 in rat, rabbit, dog, and human plasma under standardized incubation conditions.
(§2) OT-551 was incubated with pooled rat, rabbit, dog, and human plasma for various times under standardized incubation conditions. Pre-labeled tubes containing pooled plasma from rats, rabbits, dogs, and humans were pre-incubated in a shaking 37° C. water bath. A OT-551 solution was added to the tubes at a final concentration of 1000 ng/mL. Time zero samples (n=5) were immediately removed and transferred into tubes containing a stabilizer solution (DTPA, acetylcysteine and ascorbic acid), the LC/MS/MS assay internal standard and methanol. […] The tubes were vortexed, placed on ice, followed by centrifugation. One hundred-μL aliquots of the supernatant were transferred into HPLC sample vials. Additional tubes (n=5 at each time point) were incubated for 5, 10, 20, 30, 60, 120, and 240 minutes at 37° C. and thereafter processed. The amount of OT-551 and TP-H in each incubated sample was quantified using validated LC/MS/MS assays.

[4] = In vitro stability of OT-551 in rabbit plasma; type: in vitro ADME
Procedure: as §1, §2

[5] = In vitro stability of OT-551 in human plasma; type: in vitro ADME
Procedure: as §1, §2

[6] = Sprague-Dawley rats, 10-minute iv infusion of OT-551 10 mg/kg

SMILES: CC1(C)CC(O)CC(C)(C)N1O [TEMPOL-H]
- peak plasma concentration of TP-H at the end of the OT-551 infusion ([1]; 10 mg/kg OT-551): 2481.7 ng/mL
- plasma levels of TP-H at 4 hr post infusion ([1]; 10 mg/kg OT-551): still quantifiable
- terminal elimination half-life of TP-H ([1]; 10 mg/kg OT-551): 24 min
- peak plasma concentration of TP-H at the end of the OT-551 infusion ([1]; 30 mg/kg OT-551): 8337.7 ng/mL
- peak plasma concentration of TP-H at the end of the OT-551 infusion ([1]; 100 mg/kg OT-551): 29020.8 ng/mL
- peak plasma concentration of TP-H at the end of the OT-551 infusion ([1]; 200 mg/kg OT-551): 60802.1 ng/mL
- levels of TP-H four hours after terminating the infusion relative to concentrations immediately after terminating the infusion ([1]; 30, 100 and 200 mg/kg OT-551): less than 1%
- Mean ± SD Plasma Concentrations of TP-H ([1]; OT-551 10 mg/kg iv infusion, 1.167 hr): 204.7 ± 85.6 ng/mL
- Mean ± SD Plasma Concentrations of TP-H ([1]; OT-551 10 mg/kg iv infusion, 2.167 hr): 25.2 ± 24.0 ng/mL
- Mean ± SD Plasma Concentrations of TP-H ([1]; OT-551 10 mg/kg iv infusion, 4.167 hr): 4.2 ± 10.3 ng/mL
- Mean ± SD Plasma Concentrations of TP-H ([1]; OT-551 30 mg/kg iv infusion, 4.167 hr, n = 5): 53.8 ± 29.7 ng/mL
- Mean ± SD Plasma Concentrations of TP-H ([1]; OT-551 100 mg/kg iv infusion, 4.167 hr): 160.0 ± 97.5 ng/mL
- Mean ± SD Plasma Concentrations of TP-H ([1]; OT-551 200 mg/kg iv infusion, 4.167 hr): 524.5 ± 237.0 ng/mL
- AUC(0-4.167 hr) of TP-H [1, 6]: 1694.8 ng·h/mL
- Cmax of TP-H [1, 6]: 2481.7 ng/mL
- T½ of TP-H ([1]; Sprague-Dawley rats, 10-minute iv infusion of OT-551 10 mg/kg, elimination half-life): 24 min
- AUC of TP-H ([1]; Sprague-Dawley rats, 10-minute iv infusion of OT-551 10 mg/kg, to time infinity): 1697.5 ng·h/mL
- Cmax of TP-H ([1]; Sprague-Dawley rats, 10-minute iv infusion of OT-551 30 mg/kg): 8337.7 ng/mL
- Cmax of TP-H ([1]; Sprague-Dawley rats, 10-minute iv infusion of OT-551 100 mg/kg): 29020.8 ng/mL
- Cmax of TP-H ([1]; Sprague-Dawley rats, 10-minute iv infusion of OT-551 200 mg/kg): 60802.2 ng/mL
- Mean ± SD Plasma Concentrations of TP-H ([1]; Sprague-Dawley rats, single 10-minute iv infusion of OT-551 10 mg/kg, 0.167 hr from start of infusion): 2481.7 ± 325.8 ng/mL
- Mean ± SD Plasma Concentrations of TP-H ([1]; Sprague-Dawley rats, single 10-minute iv infusion of OT-551 30 mg/kg, 0.167 hr, n = 5): 8337.7 ± 2099.5 ng/mL
- Mean ± SD Plasma Concentrations of TP-H ([1]; Sprague-Dawley rats, single 10-minute iv infusion of OT-551 100 mg/kg, 0.167 hr): 29020.8 ± 11713.7 ng/mL
- Mean ± SD Plasma Concentrations of TP-H ([1]; Sprague-Dawley rats, single 10-minute iv infusion of OT-551 200 mg/kg, 0.167 hr): 60802.2 ± 8922.5 ng/mL
- Tmax of TP-H ([1]; rat, in vivo, iv): 10 min
- Inhibition of Angiogenesis in CAM, % Inhibition [2]: 43 ± 10%
- Concentrations (ng/mL) of TP-H in Rat Plasma ([3]; OT-551 incubation time 0 min): 10.23 ± 1.59 ng/mL
- Concentrations (ng/mL) of TP-H in Rat Plasma ([3]; OT-551 incubation time 5 min): 30.47 ± 1.65 ng/mL
- Concentrations (ng/mL) of TP-H in Rat Plasma ([3]; OT-551 incubation time 10 min): 50.91 ± 2.11 ng/mL
- Concentrations (ng/mL) of TP-H in Rat Plasma ([3]; OT-551 incubation time 20 min): 86.30 ± 3.30 ng/mL
- Concentrations (ng/mL) of TP-H in Rat Plasma ([3]; OT-551 incubation time 30 min): 119.63 ± 7.08 ng/mL
- Concentrations (ng/mL) of TP-H in Rat Plasma ([3]; OT-551 incubation time 60 min): 201.94 ± 4.19 ng/mL
- Concentrations (ng/mL) of TP-H in Rat Plasma ([3]; OT-551 incubation time 120 min): 304.66 ± 7.27 ng/mL
- Concentrations (ng/mL) of TP-H in Rat Plasma ([3]; OT-551 incubation time 240 min): 362.66 ± 7.50 ng/mL
- Concentrations (ng/mL) of TP-H in Rabbit Plasma ([4]; OT-551 incubation time 0 min): 270.55 ± 35.45 ng/mL
- Concentrations (ng/mL) of TP-H in Rabbit Plasma ([4]; OT-551 incubation time 5 min): 587.17 ± 21.99 ng/mL
- Concentrations (ng/mL) of TP-H in Rabbit Plasma ([4]; OT-551 incubation time 10 min): 604.21 ± 21.99 ng/mL
- Concentrations (ng/mL) of TP-H in Rabbit Plasma ([4]; OT-551 incubation time 20 min): 590.06 ± 40.97 ng/mL
- Concentrations (ng/mL) of TP-H in Rabbit Plasma ([4]; OT-551 incubation time 30 min): 533.01 ± 117.40 ng/mL
- Concentrations (ng/mL) of TP-H in Rabbit Plasma ([4]; OT-551 incubation time 60 min): 569.19 ± 32.96 ng/mL
- Concentrations (ng/mL) of TP-H in Rabbit Plasma ([4]; OT-551 incubation time 120 min): 525.63 ± 10.31 ng/mL
- Concentrations (ng/mL) of TP-H in Rabbit Plasma ([4]; OT-551 incubation time 240 min): 477.54 ± 40.95 ng/mL
- Concentrations (ng/mL) of TP-H in Human Plasma ([5]; OT-551 incubation time 0 min): 48.76 ± 2.84 ng/mL
- Concentrations (ng/mL) of TP-H in Human Plasma ([5]; OT-551 incubation time 5 min): 186.71 ± 4.58 ng/mL
- Concentrations (ng/mL) of TP-H in Human Plasma ([5]; OT-551 incubation time 10 min): 241.99 ± 8.05 ng/mL
- Concentrations (ng/mL) of TP-H in Human Plasma ([5]; OT-551 incubation time 20 min): 310.10 ± 8.54 ng/mL
- Concentrations (ng/mL) of TP-H in Human Plasma ([5]; OT-551 incubation time 30 min): 365.53 ± 14.44 ng/mL
- Concentrations (ng/mL) of TP-H in Human Plasma ([5]; OT-551 incubation time 60 min): 449.85 ± 9.73 ng/mL
- Concentrations (ng/mL) of TP-H in Human Plasma ([5]; OT-551 incubation time 120 min): 519.12 ± 19.52 ng/mL
- Concentrations (ng/mL) of TP-H in Human Plasma ([5]; OT-551 incubation time 240 min): 501.39 ± 11.33 ng/mL
